According to ChEMBL document CHEMBL1134397, “Synthesis, structure-activity relationships, and pharmacokinetic profiles of nonpeptidic alpha-keto heterocycles as novel inhibitors of human chymase” (J Med Chem, 2001):
Active and inactive are the calls of the source. The rule behind the calls is not given here. Where a SMILES comes first, the peptide text is derived from it. The star is where a group is joined. CF3 = FC(F)(F)*

What was measured:
[1] = Time to reach Cmax when a dose of 1 mg/kg is administered orally; format: ADME, organism-based; set-up: dose 1 mg/kg, route oral; conditions: rat, in vivo, po
Chymotrypsinogen A = Chymotrypsinogen A (Bos taurus, UniProt P00766); assay: Inhibitory activity against alpha chymotrypsin from bovine pancreas.
[2] = Oral Bioavailability was determined; format: ADME, organism-based; conditions: rat, in vivo, read-out: BA
[3] = Pharmacokinetic parameter AUC was determined when a dose of 1 mg/kg was administered intravenously; format: ADME, organism-based; set-up: dose 1 mg/kg, route intravenous; conditions: rat, in vivo, iv
[4] = target: Angiotensin-converting enzyme (Homo sapiens) (UniProt P12821); assay: Inhibitory activity against human angiotensin I converting enzyme (10 uM); No inhibition
Angiotensin-converting enzyme (Homo sapiens), sequence (P12821 whole entry): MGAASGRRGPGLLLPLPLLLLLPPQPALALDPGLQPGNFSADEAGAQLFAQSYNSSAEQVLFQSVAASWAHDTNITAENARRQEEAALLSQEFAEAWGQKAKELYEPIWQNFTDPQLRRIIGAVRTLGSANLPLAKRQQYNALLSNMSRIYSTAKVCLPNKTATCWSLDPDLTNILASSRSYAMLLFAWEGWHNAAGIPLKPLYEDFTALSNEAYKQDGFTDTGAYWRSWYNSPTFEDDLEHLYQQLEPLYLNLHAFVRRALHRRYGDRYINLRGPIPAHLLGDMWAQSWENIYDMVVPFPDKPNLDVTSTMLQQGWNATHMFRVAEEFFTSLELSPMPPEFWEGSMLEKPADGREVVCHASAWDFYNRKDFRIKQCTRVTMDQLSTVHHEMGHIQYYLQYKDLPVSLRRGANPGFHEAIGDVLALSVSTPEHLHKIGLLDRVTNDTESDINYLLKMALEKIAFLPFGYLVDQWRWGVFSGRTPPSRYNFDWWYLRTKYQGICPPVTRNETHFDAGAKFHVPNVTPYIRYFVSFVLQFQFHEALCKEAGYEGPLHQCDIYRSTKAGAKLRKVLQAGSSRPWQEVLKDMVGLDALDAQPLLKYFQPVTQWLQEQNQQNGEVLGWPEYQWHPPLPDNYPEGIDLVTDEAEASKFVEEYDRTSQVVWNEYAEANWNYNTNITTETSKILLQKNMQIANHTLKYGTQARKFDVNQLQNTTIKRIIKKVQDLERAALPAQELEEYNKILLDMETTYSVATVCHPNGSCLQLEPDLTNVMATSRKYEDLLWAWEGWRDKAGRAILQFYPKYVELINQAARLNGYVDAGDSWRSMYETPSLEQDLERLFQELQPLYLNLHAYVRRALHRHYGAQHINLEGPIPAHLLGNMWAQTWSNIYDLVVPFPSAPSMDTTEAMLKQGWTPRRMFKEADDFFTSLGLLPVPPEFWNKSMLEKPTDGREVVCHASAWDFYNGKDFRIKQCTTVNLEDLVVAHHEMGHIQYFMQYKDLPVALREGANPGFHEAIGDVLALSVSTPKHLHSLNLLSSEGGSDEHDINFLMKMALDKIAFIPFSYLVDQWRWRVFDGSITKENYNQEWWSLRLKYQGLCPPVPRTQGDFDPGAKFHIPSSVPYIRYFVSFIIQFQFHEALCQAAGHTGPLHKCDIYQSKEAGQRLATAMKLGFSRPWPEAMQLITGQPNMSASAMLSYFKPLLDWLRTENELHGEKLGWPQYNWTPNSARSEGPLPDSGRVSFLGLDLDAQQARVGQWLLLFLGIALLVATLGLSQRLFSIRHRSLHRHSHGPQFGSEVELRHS

Mast cell protease 9 = target: T1, Mast cell protease 9 (Mus musculus, UniProt O35164); assay: Inhibitory activity against mouse peritoneal chymase
T1 sequence (O35164 whole entry): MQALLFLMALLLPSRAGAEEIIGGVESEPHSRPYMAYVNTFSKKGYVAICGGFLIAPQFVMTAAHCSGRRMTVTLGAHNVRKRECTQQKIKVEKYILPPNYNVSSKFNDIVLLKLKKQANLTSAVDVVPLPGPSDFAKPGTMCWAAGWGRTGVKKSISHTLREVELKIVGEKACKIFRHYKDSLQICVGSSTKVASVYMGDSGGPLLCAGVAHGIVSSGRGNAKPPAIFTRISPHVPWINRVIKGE

[5] = Half life was evaluated when a dose of 1 mg/kg was administered intravenously to rats; format: ADME, organism-based; set-up: dose 1 mg/kg, route intravenous; conditions: rat, in vivo, iv
Chymase [6] = target: T2, Chymase (Rattus norvegicus, UniProt P50339); assay: Inhibitory activity against rat peritoneal chymase
T2 sequence (P50339 whole entry): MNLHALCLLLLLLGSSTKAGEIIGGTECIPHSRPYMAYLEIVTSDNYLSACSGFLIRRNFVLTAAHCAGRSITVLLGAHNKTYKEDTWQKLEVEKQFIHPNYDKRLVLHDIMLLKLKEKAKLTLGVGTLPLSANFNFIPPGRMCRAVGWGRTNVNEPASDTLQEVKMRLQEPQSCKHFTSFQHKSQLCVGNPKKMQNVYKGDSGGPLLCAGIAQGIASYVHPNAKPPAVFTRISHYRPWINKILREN

[7] = Pharmacokinetic parameter AUC was determined when a dose of 1 mg/kg was administered orally; format: ADME, organism-based; set-up: dose 1 mg/kg, route oral; conditions: rat, in vivo, po
[8] = Steady state volume distribution was determined; steady state(ss); format: ADME, organism-based; conditions: rat, in vivo
[9] = target: T3, Neutrophil elastase (Homo sapiens) (UniProt P08246); assay: Inhibitory activity against human leukocyte elastase (10 uM); No inhibition
T3 sequence (whole entry): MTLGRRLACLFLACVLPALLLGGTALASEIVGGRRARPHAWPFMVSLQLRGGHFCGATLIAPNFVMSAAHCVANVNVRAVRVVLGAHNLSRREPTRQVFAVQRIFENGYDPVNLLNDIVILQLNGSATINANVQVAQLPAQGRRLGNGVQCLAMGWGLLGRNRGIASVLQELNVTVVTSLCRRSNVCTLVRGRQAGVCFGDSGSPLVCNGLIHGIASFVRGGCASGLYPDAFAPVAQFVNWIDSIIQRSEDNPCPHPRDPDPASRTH

[10] = target: Prothrombin (Homo sapiens) (UniProt P00734); assay: inhibitory activity against human plasma thrombin (10 uM); No inhibition; format: cell-free
[11] = Pharmacokinetic parameter plasma clearance was determined at when a dose of 1 mg/kg is administered; format: ADME, organism-based; set-up: dose 1 mg/kg; conditions: rat
[12] = Maximum plasma concentration was measured when a dose of 1 mg/kg is administered orally; format: ADME, organism-based; set-up: dose 1 mg/kg, route oral; conditions: rat, po
Chymase [13] = target: T4, Chymase (Homo sapiens, UniProt P23946); assay: Inhibitory activity evaluated against chymase from human heart.
T4 sequence (P23946 whole entry): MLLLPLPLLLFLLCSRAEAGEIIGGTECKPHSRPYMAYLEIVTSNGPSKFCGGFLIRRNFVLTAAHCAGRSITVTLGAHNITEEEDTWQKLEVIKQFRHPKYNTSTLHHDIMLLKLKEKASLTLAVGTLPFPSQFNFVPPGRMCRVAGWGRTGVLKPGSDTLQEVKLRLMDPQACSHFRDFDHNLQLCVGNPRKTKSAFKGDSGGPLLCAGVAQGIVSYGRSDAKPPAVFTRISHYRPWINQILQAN

Chymase [14] = target: T4, Chymase
Chymase [15] = target: T4, Chymase; assay: inhibitory activity was evaluated against chymase from human heart.
[16] = target: Prothrombin (Homo sapiens) (UniProt P00734); assay: Inhibitory activity against human plasma thrombin (10 uM); No inhibition; format: cell-free
Cathepsin G = target: T5, Cathepsin G (Homo sapiens, UniProt P08311); assay: Inhibitory activity against human cathepsin G
T5 sequence (P08311 whole entry): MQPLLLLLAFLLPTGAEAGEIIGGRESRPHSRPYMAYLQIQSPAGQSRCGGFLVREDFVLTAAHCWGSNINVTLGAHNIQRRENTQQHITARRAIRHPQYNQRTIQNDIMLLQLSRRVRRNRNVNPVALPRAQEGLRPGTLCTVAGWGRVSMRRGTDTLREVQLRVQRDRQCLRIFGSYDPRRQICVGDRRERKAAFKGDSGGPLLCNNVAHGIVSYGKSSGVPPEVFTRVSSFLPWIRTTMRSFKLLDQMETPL

Compound | Ki (Chymotrypsinogen A) | Ki (Chymase [13]) | further results
COC(=O)c1ccc2oc(C(=O)C(Cc3ccccc3)NC(=O)Cn3c(-c4cccc(OC)c4)ncc(N)c3=O)nc2c1 (stereo not drawn) | 943 nM | 4.85 nM | Tmax [1]: 6 h; bioavailability [2]: 19.3%; AUC [3]: 108000 ng·h/mL; NA [4]: inactive; Ki (Mast cell protease 9): 63.9 nM; half-life [5]: 35.7 h; Ki (Chymase [6]): 86.6 nM; AUC [7]: 20800 ng·h/mL; Vd [8]: 0.469 L/kg; NA [9]: inactive; NA [10]: inactive; clearance [11]: 0.168 mL/min/kg; Cmax [12]: 396 ng/mL; Ki (Chymase [14]): 1.12 nM
Nc1cnc(-c2ccc(F)cc2)n(CC(=O)NC(Cc2ccccc2)C(=O)c2nc3ncccc3o2)c1=O (stereo not drawn) | 60.5 nM | 60.6 nM | 
CCN(CC)C(=O)c1ccc2oc(C(=O)C(Cc3ccccc3)NC(=O)Cn3c(-c4ccc(F)cc4)ncc(N)c3=O)nc2c1 (stereo not drawn) | 23.3 nM | 59.5 nM | 
COC(=O)c1ccc2oc(C(=O)C(Cc3ccccc3)NC(=O)Cn3c(-c4cccc(Cl)c4)ncc(N)c3=O)nc2c1 (stereo not drawn) | 3820 nM | 26.1 nM | 
Nc1cnc(-c2ccc(F)cc2)n(CC(=O)NC(Cc2ccccc2)C(=O)c2nc3cc(C(=O)O)ccc3o2)c1=O (stereo not drawn) | 133 nM |  | 
COC(=O)c1ccc2oc(C(=O)C(Cc3ccccc3)NC(=O)Cn3c(-c4cccc(C)c4)ncc(N)c3=O)nc2c1 (stereo not drawn) | 47.7 nM | 44.2 nM | 
CC(C)[C@H](N)C(=O)N1CCC[C@H]1C(=O)N[C@@H](Cc1ccccc1)C(=O)C(F)(F)F (H-Val-Pro-Phe-CF3) | 4400 nM | 82.1 nM | 
COC(=O)c1ccc2oc(C(=O)C(Cc3ccccc3)NC(=O)Cn3c(-c4cccc(F)c4)ncc(N)c3=O)nc2c1 (stereo not drawn) | 1770 nM | 14.3 nM | 
CC(C)C[C@H](NC(=O)[C@@H](NC(=O)N[C@@H](Cc1ccccc1)C(=O)O)C1CCN=C(N)N1)C(=O)N[C@H](C=O)Cc1ccccc1 (stereo partly drawn) [CHYMOSTATIN] |  |  | Ki (Chymase [15]): 13.1 nM
COC(=O)c1ccc2oc(C(=O)C(Cc3ccccc3)NC(=O)Cn3c(-c4cccc([N+](=O)[O-])c4)ncc(N)c3=O)nc2c1 (stereo not drawn) | 11500 nM |  | 
CCNC(=O)c1ccc2oc(C(=O)C(Cc3ccccc3)NC(=O)Cn3c(-c4ccc(F)cc4)ncc(N)c3=O)nc2c1 (stereo not drawn) | 32.6 nM | 68.6 nM | 
COC(=O)c1ccc2oc(C(=O)C(Cc3ccccc3)NC(=O)Cn3c(-c4ccncc4)ncc(N)c3=O)nc2c1 (stereo not drawn) | 467 nM | 43.5 nM | 
Nc1cnc(-c2ccc(F)cc2)n(CC(=O)NC(Cc2ccccc2)C(=O)c2nc3cc(F)ccc3o2)c1=O (stereo not drawn) | 65.1 nM |  | 
COC(=O)c1ccc2oc(C(=O)C(Cc3ccccc3)NC(=O)Cn3c(-c4ccc(F)cc4)ncc(N)c3=O)nc2c1 (stereo not drawn) | 52.9 nM | 22.6 nM | NA [16]: inactive; NA [4]: inactive; Ki (Mast cell protease 9): 40.4 nM; Ki (Chymase [6]): 103 nM; Ki (Cathepsin G): 720 nM; NA [9]: inactive; Ki (Chymase [14]): 3.68 nM
NC(=O)c1ccc2oc(C(=O)C(Cc3ccccc3)NC(=O)Cn3c(-c4ccc(F)cc4)ncc(N)c3=O)nc2c1 (stereo not drawn) | 53.4 nM | 94 nM | 
COC(=O)c1ccc2oc(C(=O)C(Cc3ccccc3)NC(=O)Cn3c(-c4cccc(N)c4)ncc(N)c3=O)nc2c1 (stereo not drawn) | 855 nM | 5.6 nM | 
Nc1cnc(-c2ccc(F)cc2)n(CC(=O)NC(Cc2ccccc2)C(=O)c2nc3cc(-c4ccccc4)ccc3o2)c1=O (stereo not drawn) |  |  | Ki (Chymase [15]): 174 nM
CCOC(=O)c1ccc2oc(C(=O)C(Cc3ccccc3)NC(=O)Cn3c(-c4ccc(F)cc4)ncc(N)c3=O)nc2c1 (stereo not drawn) | 477 nM | 30 nM | 
Nc1ccc2oc(C(=O)C(Cc3ccccc3)NC(=O)Cn3c(-c4ccc(F)cc4)ncc(N)c3=O)nc2c1 (stereo not drawn) | 60 nM |  | 
COC(=O)c1ccc2oc(C(=O)C(Cc3ccccc3)NC(=O)Cn3c(-c4cccnc4)ncc(N)c3=O)nc2c1 (stereo not drawn) | 45.1 nM |  | Ki (Chymase [15]): 77.4 nM
Nc1cnc(-c2ccc(F)cc2)n(CC(=O)NC(Cc2ccccc2)C(=O)c2nc3cc(O)ccc3o2)c1=O (stereo not drawn) | 2230 nM | 2120 nM | 
COC(=O)c1ccc2nc(C(=O)C(Cc3ccccc3)NC(=O)Cn3c(-c4ccc(F)cc4)ncc(N)c3=O)oc2c1 (stereo not drawn) | 71.3 nM |  | 
